The values below come from article PMC3667588 (Journal of pharmacological and toxicological methods, 2012).

Where “and” joins values, the source holds several entries; their conditions need not be identical. Identical values can stand only once. Like-named read-outs stand apart in the source and are kept apart here.

Data set [1] relates to hiPSC-derived cardiomyocytes. Nature of the data set: KIC spontaneous calcium transients in hiPSC-derived cardiomyocytes. Type of data set: cell-based, human. As to conditions: for EC50 Decay (in words) / EC50 FWHM (in words) / EC50 Rise Time (in words) / EC50 T75-25 (in words): N.S., not significant vs vehicle by ANOVA/Dunnett; for Effect on spontaneous calcium transient (in words): dose-response.

For the next data set, the system named is L-type Ca^2+ channel. As to conditions: CR-mc; ref Ogawa, et al., 1992; cited from earlier work.
The subject of the next data set is hiPSC-CMs. Type of data set: cell-based, human. As to conditions: for Effect on paced [Ca^2+]i transients at 1 µM / Effect on paced [Ca^2+]i transients at 10 µM: 1 Hz pacing; for Effect on paced [Ca^2+]i transients at 0.1 µM: 4 stimulations at 1 Hz.
In the next data set the test system is hERG. As to conditions: cited from earlier work; for Reported EC50/IC50: PC-cc, et al.
For the next data set, the system named is Na^+ channel. As to conditions: PC-Xl; ref Ramos & O'Leary, 2004; cited from earlier work.
In another data set the test system is KATP channel. As to conditions: TM-ec; ref Houjou, et al., 1996; cited from earlier work.
A further data set deals with hERG K^+ channel. As to conditions: PC-Xl; ref Hansen, et al., 2006; cited from earlier work.
Data set [2] deals with NRVMs. Nature of the data set: KIC Ca2+ transient analysis in neonatal rat ventricular myocytes. As to conditions: for FWHM / T75-25 / TDecay / TRise: NRVMs treated three days with 100 nM T3, Ca2+ transient. Type of data set: cell-based.
Data set [3] relates to NRVMs. Nature of the data set: KIC calcium transients in T3-treated NRVMs paced at 2 Hz. Type of data set: cell-based, rat. As to conditions: NRVMs after T3 treatment, 100 µM, 12 seconds recording.
Where [4] appears, read: read-out: EC50 Decay, spontaneous calcium transients, hiPSC-CMs.
The mark [5] stands for this setting: read-out: EC50 FWHM, spontaneous calcium transients, hiPSC-CMs.
The mark [6] stands for this setting: read-out: EC50 Rise Time, spontaneous calcium transients, hiPSC-CMs.
The mark [7] stands for this setting: read-out: EC50 T75-25, spontaneous calcium transients, hiPSC-CMs.
Where [8] appears, read: Homo sapiens, Cardiomyocyte, read-out: EC50 Decay.
[9] abbreviates: Homo sapiens, Cardiomyocyte, read-out: EC50 FWHM.
Where [10] appears, read: Homo sapiens, Cardiomyocyte, read-out: EC50 Rise Time.
Setting [11] is: Homo sapiens, Cardiomyocyte, read-out: EC50 T75-25.
Where [12] appears, read: Average CTR minus average T3 (100 nM, three days).

Take `CC(=O)Oc1ccccc1C(=O)O` [Aspirin]: in data set [1], the “EC50 Decay (in words)” value is listed as “N.S”, the “EC50 FWHM (in words)” value is recorded as “N.S”, the “EC50 Rise Time (in words)” value is reported as “N.S” and the “EC50 T75-25 (in words)” value was “N.S”. Moreover, the “Effect on spontaneous calcium transient (in words)” value in [1] (hiPSC-CMs) was “minimal effect only at the highest concentrations”.
For `COC(=O)C1=C(C)NC(C)=C([N+](=O)[O-])C1c1ccccc1C(F)(F)F` (stereo not drawn) [Bay K 8644], the “Effect on spontaneous calcium transient (in words)” value in data set [1] (hiPSC-CMs) was “increased the transient amplitude and prolonged its duration”. Besides, the EC50 (usually the concentration at which the effect is half-maximal) was 6.38 nM in [1] (setting [4]), 11 nM in data set [1] (setting [5]), 1300 nM in data set [1] (setting [6]) and 5.48 nM in data set [1] (setting [7]). In the data set with L-type Ca^2+ channel, the “Reported EC50/IC50” value is 10–100 nM CR-mc.
On to `COc1cc(N)c(Cl)cc1C(=O)NC1CCN(CCCOc2ccc(F)cc2)CC1OC` (stereo not drawn) [Cisapride], for which the EC50 in [1] (setting [8]) stood at 147 nM. Besides, the EC50 in data set [1] (setting [9]) was 149 nM. The concentration for a half-maximal effect (EC50) in [1] (setting [10]) came out at 154 nM. The “EC50 T75-25 (in words)” value in data set [1] is reported as “N.S”. Further, the “Effect on spontaneous calcium transient at 10 nM” value in data set [1] (hiPSC-CMs, 10 nM) was “prolonged the calcium transient”. Besides, the “Effect on spontaneous calcium transient at 100 nM” value in [1] (hiPSC-CMs, 100 nM) is “reduction in the intensity of the transient and prolongation of the late phase of the decay”. Moreover, in data set [1] (hiPSC-CMs, concentrations above 100 nM), the “Effect on spontaneous calcium transient at higher concentrations” value is listed as “completely inhibited the occurrence of spontaneous transients”. In the data set with hiPSC-CMs, the “Effect on paced [Ca^2+]i transients at 1 µM” value is “almost fused and the maxima were reduced to about half of the initial peak”; the “Effect on paced [Ca^2+]i transients at 10 µM” value is “narrowed and follow-on maxima were decreased”; the “Effect on paced [Ca^2+]i transients at 0.1 µM” value was “anomalous [Ca^2+]i kinetics”. For the same compound, the “Reported EC50/IC50” value in the data set on hERG (ref Mohammad, 1997, Potet, 2001, Toga, 2007) is 6.5–240 nM PC-cc.
For the compound `CN(CCOc1ccc(NS(C)(=O)=O)cc1)CCc1ccc(NS(C)(=O)=O)cc1` [Dofetilide], the EC50 in data set [1] (setting [8]) is 0.75 nM. Further, in data set [1] (setting [11]), the EC50 amounted to 5.87 nM. Moreover, in [1], the “EC50 FWHM (in words)” value is reported as “N.S” and the “EC50 Rise Time (in words)” value is on record as “N.S”.
Take `Cc1cccc(CCN2CCC(C(=O)c3ccc(NS(C)(=O)=O)cc3)CC2)n1` [E-4031]: the concentration for a half-maximal effect (EC50) worked out at 45.7 nM in data set [1] (setting [4]), 44.1 nM in data set [1] (setting [5]), 38.6 nM in data set [1] (setting [6]) and 82.2 nM in [1] (setting [7]).
For `O=C(NCC1CCCCN1)c1cc(OCC(F)(F)F)ccc1OCC(F)(F)F` (stereo not drawn) [Flecainide], the concentration giving a half-maximal response (EC50) in [1] (setting [8]) was 1010 nM; in [1] (setting [10]), 9670 nM; in [1] (setting [11]) it was 1130 nM. Also, the “EC50 FWHM (in words)” value in [1] is “N.S”. Further, in the data set on Na^+ channel, the “Reported EC50/IC50” value was 7.4 µM PC-Xl.
For the compound `CC1(C)Oc2ccc(C#N)cc2[C@@H](N2CCCC2=O)[C@@H]1O` [Levcromakalim], the EC50 in data set [1] (setting [8]) worked out at 5280 nM; in data set [1] (setting [9]) it was 9160 nM; in [1] (setting [10]), 3720 nM; in [1] (setting [11]) it was 3070 nM. In addition, the “Reported EC50/IC50” value in the data set with KATP channel was 1.73 µM TM-ec.
`CCOc1cc(N)c(Cl)cc1C(=O)NCC1CN(Cc2ccc(F)cc2)CCO1` (stereo not drawn) [Mosapride]: in data set [1], the “EC50 Decay (in words)” value is on record as “N.S”, the “EC50 FWHM (in words)” value is recorded as “N.S”, the “EC50 Rise Time (in words)” value is “N.S” and the “EC50 T75-25 (in words)” value is recorded as “N.S”. The “Effect on spontaneous calcium transient (in words)” value in [1] (hiPSC-CMs) is given as “did not induce statistically significant changes”. Also, the “Effect on spontaneous calcium transient (in words)” value in data set [1] (hiPSC-CMs, listed as mosapride) was “minimal effect only at the highest concentrations”. Further, in the data set on hiPSC-CMs, the “Effect on paced [Ca^2+]i transients at 1 µM” value was “no discernible differences”, the “Effect on paced [Ca^2+]i transients at 10 µM” value is “pattern similar to 0.1 µM cisapride” and the “Effect on paced [Ca^2+]i transients at 0.1 µM” value was “no discernible differences”. Further, in the data set on hERG (ref Toga, Kohmura, & Kawatsu, 2007), the “Affinity for hERG relative to cisapride” value is reported as “three orders of magnitude less affinity for hERG”.
For the compound `O=C(Nc1cc(C(F)(F)F)ccc1O)Nc1cc(C(F)(F)F)ccc1O` [NS1463, 1,3-Bis-(2-hydroxy-5-trifluoromethyl-phenyl)-urea], the concentration giving a half-maximal response (EC50) in [1] (setting [8]) stood at 2540 nM; in data set [1] (setting [9]) it was 7000 nM; in data set [1] (setting [10]), 3890 nM; in data set [1] (setting [11]) it was 2330 nM. Further, in the data set on hERG K^+ channel, the “Reported EC50/IC50” value was 10.5µM PC-Xl.
Turning to `CC(C)NCC(O)c1ccc(NS(C)(=O)=O)cc1` (stereo not drawn) [Sotalol], the EC50 in data set [1] (setting [8]) turned out to be 85700 nM; in [1] (setting [9]), 86300 nM; in [1] (setting [10]) it was 89100 nM. For the same compound, the “EC50 T75-25 (in words)” value in data set [1] is listed as “None”. In the data set on hERG (ref Peng, 2010), the “Reported EC50/IC50” value is on record as 268µM PC-cc.
For the compound `N[C@@H](Cc1cc(I)c(Oc2ccc(O)c(I)c2)c(I)c1)C(=O)O` [T3, Triiodothyronine], in the data set on NRVMs [2] (setting [12]), the “Difference in ms, FWHM” value is 311 ms; the “Difference in ms, T75-25” value amounted to 215 ms; the “Difference in ms, TDecay” value is recorded as 190 ms; the “Difference in ms, TRise” value was 119 ms. Further, in the data set on NRVMs [2], the FWHM is 567 ± 9 ms; the T75-25 is 439 ± 44 ms; the TDecay is 462 ± 15 ms; the TRise was 104 ms and 104 ± 14 ms. Further, in the data set with NRVMs [2] (listed as T3-1), the FWHM is reported as 567 ms, the T75-25 is listed as 390 ms, the TDecay amounted to 447 ms and the TRise came to 120 ms. For the same compound, in the data set on NRVMs [2] (listed as T3-2), the FWHM turned out to be 558 ms, the T75-25 was 450 ms, the TDecay is given as 462 ms and the TRise stood at 96 ms. In the data set with NRVMs [2] (listed as T3-3), this compound showed an FWHM of 576 ms, a T75-25 of 477 ms and a TDecay of 477 ms. In the data set on NRVMs [2] (T3 vs control NRVMs), the “Reduction of FWHM” value was determined as 35%, the “Reduction of T75-25” value worked out at 33%, the “Reduction of TDecay” value is listed as 29% and the “Reduction of TRise” value stood at 53%.
`COc1ccc(CCN(C)CCCC(C#N)(c2ccc(OC)c(OC)c2)C(C)C)cc1OC` (stereo not drawn) [Verapamil]: the 50% effective concentration (EC50) in [1] (setting [8]) stood at 170 nM; in data set [1] (setting [9]), 260 nM; in data set [1] (setting [10]), 460 nM; in [1] (setting [11]), 390 nM. In addition, the “Effect on spontaneous calcium transient (in words)” value in data set [1] (hiPSC-CMs) is “dose-dependent reduction in the intensity and duration of the calcium transient”; in [1] (hiPSC-CMs, listed as verapamil), “completely blocked the Ca^2+ transient”.
Take `C[C@@H]1CN(c2c(F)c(N)c3c(=O)c(C(=O)O)cn(C4CC4)c3c2F)C[C@H](C)N1` [sparfloxacin]: the “Effect on paced calcium transients” value in the data set on NRVMs [3] is reported as “highly asynchronous calcium transients”.
